From US10544143B2, “4-azaindole compounds” (BRISTOL-MYERS SQUIBB COMPANY, priority 2017, dated 2020)
Where two headings read alike, the source gives them in different places.

Key:
[1] = target: human TLR8 (Homo sapiens (Human), UniProt Q9NR97); test: TLR8 inhibition reporter assay (HEK-Blue SEAP); details: read-out: TLR8 IC50, R848 15.9 μM;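 also: SEAP driven by IFN-β minimal promoter carrying NF-κB and AP-1 sites, compounds dosed 0.05 nM to 50 µM for 22 h, inhibition scaled between agonist-plus-DMSO and reference-inhibitor wells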
Experimental: HEK-Blue™-cells (Invivogen) overexpressing human TLR7, TLR8 or TLR9 receptors were used for screening inhibitors of these receptors using an inducible SEAP (secreted embryonic alkaline phosphatase) reporter gene under the control of the IFN-β minimal promoter fused to five NF-κB and AP-1-binding sites. Briefly, cells are seeded into Greiner 384 well plates (15000 cells per well for TLR7, 20,000 for TLR8 and 25,000 for TLR9) and then treated with test compounds in DMSO to yield a final dose response concentration range of 0.05 nM-50 μM. After a 30 minute compound pre-treatment at room temperature, the cells are then stimulated with a TLR7 ligand (gardiquimod at a final concentration of 7.5 μM), TLR8 ligand (R848 at a final concentration of 15.9 μM) or TLR9 ligand (ODN2006 at a final concentration of 5 nM) to activate NF-κB and AP-1 which induce the production of SEAP. After a 22 hour incubation at 37° C., 5% CO2, SEAP levels are determined with the addition of HEK-Blue™ Detection reagent (Invivogen), a cell culture medium that allows for detection of SEAP, according to manufacturer's specifications.

[2] = target: human TLR7 (Homo sapiens (Human), UniProt Q9NYK1); test: TLR7 inhibition reporter assay (HEK-Blue SEAP); type: cell-based; details: gardiquimod 7.5 μM
[3] = target: human TLR9 (Homo sapiens (Human), UniProt Q9NR96); test: TLR9 inhibition reporter assay (HEK-Blue SEAP); details: read-out: TLR9 IC50, ODN2006 5 nM;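 also: SEAP driven by an IFN-β minimal promoter with NF-κB and AP-1 sites, read after 22 h, compounds dosed 0.05 nM–50 µM, inhibition scaled between agonist plus DMSO and reference-inhibitor wells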
[4] = HEK-Blue cells overexpressing human TLR8, SEAP reporter
[5] = HEK-Blue cells overexpressing human TLR7, SEAP reporter
[6] = HEK-Blue cells overexpressing human TLR9, SEAP reporter

Chain of human TLR7 (Q9NYK1 27-1049): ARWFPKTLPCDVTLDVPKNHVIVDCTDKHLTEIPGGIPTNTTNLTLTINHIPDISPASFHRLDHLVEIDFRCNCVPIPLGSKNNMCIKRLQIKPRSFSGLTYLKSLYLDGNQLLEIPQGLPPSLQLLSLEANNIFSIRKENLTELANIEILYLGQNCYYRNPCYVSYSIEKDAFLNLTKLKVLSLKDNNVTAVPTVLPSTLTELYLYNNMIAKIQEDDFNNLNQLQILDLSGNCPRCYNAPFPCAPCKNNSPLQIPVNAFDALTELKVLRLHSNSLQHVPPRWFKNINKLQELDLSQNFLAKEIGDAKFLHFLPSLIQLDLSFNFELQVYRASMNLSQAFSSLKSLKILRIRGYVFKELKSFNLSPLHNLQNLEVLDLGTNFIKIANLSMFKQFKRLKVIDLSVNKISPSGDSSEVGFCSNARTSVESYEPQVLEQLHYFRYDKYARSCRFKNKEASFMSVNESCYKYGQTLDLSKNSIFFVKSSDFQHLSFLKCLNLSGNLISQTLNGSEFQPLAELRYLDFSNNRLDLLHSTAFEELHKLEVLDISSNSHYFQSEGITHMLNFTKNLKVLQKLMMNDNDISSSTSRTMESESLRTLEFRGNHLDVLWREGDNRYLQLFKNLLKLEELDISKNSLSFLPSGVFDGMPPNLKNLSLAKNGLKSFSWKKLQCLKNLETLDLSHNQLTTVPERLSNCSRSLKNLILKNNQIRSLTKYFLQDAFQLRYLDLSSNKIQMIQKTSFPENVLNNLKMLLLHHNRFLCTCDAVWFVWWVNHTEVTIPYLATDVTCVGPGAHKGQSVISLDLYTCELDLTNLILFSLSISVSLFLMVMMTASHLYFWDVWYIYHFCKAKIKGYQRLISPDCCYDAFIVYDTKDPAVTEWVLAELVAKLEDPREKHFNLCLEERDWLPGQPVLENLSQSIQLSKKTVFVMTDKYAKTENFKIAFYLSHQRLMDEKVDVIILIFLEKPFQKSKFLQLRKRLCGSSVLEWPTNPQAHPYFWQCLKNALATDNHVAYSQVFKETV
Chain of human TLR9 (Q9NR96 26-1032): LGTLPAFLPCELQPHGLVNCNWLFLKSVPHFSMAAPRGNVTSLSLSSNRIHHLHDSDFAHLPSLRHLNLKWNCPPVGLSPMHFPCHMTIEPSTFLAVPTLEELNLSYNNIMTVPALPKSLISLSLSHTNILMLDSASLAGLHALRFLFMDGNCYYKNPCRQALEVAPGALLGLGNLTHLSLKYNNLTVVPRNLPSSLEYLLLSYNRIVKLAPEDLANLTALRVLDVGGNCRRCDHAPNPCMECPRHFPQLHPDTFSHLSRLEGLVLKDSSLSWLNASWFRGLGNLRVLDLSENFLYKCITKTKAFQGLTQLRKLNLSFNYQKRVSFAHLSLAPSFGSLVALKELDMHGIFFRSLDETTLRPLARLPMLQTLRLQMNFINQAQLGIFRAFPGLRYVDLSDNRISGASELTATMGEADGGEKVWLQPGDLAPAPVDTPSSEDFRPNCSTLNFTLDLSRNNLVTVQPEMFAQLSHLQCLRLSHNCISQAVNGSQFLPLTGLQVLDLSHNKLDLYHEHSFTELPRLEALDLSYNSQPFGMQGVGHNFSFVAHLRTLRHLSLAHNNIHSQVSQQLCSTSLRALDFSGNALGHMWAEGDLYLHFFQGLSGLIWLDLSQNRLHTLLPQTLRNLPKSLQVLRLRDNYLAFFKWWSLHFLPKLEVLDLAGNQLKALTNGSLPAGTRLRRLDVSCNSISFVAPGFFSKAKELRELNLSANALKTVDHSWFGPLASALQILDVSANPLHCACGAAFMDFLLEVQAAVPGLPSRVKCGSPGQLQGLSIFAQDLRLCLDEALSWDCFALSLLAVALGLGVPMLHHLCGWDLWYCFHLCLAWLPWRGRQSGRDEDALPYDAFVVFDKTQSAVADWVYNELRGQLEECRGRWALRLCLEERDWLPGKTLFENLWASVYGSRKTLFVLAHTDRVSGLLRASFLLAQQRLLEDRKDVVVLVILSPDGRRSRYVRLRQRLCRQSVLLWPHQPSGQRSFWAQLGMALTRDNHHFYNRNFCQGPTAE
Chain of human TLR8 (Q9NR97 27-1041): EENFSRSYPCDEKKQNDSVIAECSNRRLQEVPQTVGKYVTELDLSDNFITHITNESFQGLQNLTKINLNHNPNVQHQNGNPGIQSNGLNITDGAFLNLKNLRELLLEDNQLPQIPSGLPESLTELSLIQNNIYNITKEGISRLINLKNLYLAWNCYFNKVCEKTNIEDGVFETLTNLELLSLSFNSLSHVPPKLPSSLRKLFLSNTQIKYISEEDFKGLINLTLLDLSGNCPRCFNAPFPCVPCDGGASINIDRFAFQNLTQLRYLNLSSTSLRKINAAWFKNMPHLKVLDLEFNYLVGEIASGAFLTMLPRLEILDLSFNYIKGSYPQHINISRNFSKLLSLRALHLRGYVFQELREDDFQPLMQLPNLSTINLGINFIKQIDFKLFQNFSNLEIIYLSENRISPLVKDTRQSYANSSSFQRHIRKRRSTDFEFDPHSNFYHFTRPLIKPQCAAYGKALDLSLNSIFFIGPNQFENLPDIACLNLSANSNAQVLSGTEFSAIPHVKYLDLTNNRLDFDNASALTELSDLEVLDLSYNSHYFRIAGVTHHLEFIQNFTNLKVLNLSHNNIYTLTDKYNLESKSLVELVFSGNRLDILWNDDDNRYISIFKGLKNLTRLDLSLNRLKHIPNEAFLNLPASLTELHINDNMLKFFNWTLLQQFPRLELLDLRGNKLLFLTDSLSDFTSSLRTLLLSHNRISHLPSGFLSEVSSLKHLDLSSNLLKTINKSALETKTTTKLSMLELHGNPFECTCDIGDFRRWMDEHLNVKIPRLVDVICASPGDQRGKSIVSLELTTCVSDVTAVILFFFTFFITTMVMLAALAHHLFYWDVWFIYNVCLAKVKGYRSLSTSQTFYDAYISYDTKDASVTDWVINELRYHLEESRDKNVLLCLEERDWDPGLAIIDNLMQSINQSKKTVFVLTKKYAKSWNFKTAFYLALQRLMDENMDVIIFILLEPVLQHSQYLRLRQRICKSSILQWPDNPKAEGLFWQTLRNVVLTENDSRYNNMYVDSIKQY

SMILES | IC50 [1, 4] | IC50 [2, 5] | IC50 [3, 6] | IC50 ([1]; HEK-Blue human TLR8 cells) | IC50 ([2]; HEK-Blue human TLR7 cells) | IC50 ([3]; HEK-Blue human TLR9 cells)
Cc1c(-c2[nH]c3ccc(N4C[C@H](C)N(CCC(N)=O)[C@@H](C)C4)nc3c2C(C)C)cn2ncnc2c1C [Example 758] | 1.7 nM | 0.89 nM | 18200 nM | – | – | –
Cc1c(-c2[nH]c3ccc(N4C[C@H](C)N(CC(N)=O)[C@@H](C)C4)nc3c2C(C)C)cn2ncnc2c1C [Example 759] | 14 nM | 3.8 nM | 38200 nM | – | – | –
Cc1c(-c2[nH]c3ccc(N4C[C@H](C)N(C(=O)CN(C)C)[C@@H](C)C4)nc3c2C(C)C)cn2ncnc2c1C [Example 760] | 27 nM | 4.2 nM | 7630 nM | – | – | –
Cc1c(-c2[nH]c3ccc(N4C[C@H](C)N(C(=O)CCN(C)C)[C@@H](C)C4)nc3c2C(C)C)cn2ncnc2c1C [Example 761] | 14 nM | 9 nM | 8170 nM | – | – | –
Cc1c(-c2[nH]c3ccc(N4C[C@H](C)N(C(=O)CN(C)C)C[C@@H]4C)nc3c2C(C)C)cn2ncnc2c1C [Example 788] | 3.2 nM | 2.1 nM | 8300 nM | – | – | –
Cc1c(-c2[nH]c3ccc(N4C[C@H](C)N(C(=O)CCN(C)C)C[C@@H]4C)nc3c2C(C)C)cn2ncnc2c1C [Example 789] | 3.7 nM | 3.2 nM | 13300 nM | – | – | –
Cc1c(-c2[nH]c3ccc(N4CCN(C(=O)CCN(C)C)[C@@H](C)C4)nc3c2C(C)C)cn2ncnc2c1C [Example 790] | 0.85 nM | 0.42 nM | 8810 nM | – | – | –
Cc1c(-c2[nH]c3ccc(N4CCN(CCC(N)=O)[C@@H](C)C4)nc3c2C(C)C)cn2ncnc2c1C [Example 791] | 1.1 nM | 5.3 nM | 18100 nM | – | – | –
Cc1c(-c2[nH]c3ccc(N4CCN(C(C)C)[C@@H](C)C4)nc3c2C(C)C)cn2ncnc2c1C [Example 792] | 1 nM | 4 nM | 8560 nM | – | – | –
Cc1c(-c2[nH]c3ccc(N4C[C@H](C)N(C(C)C)C[C@@H]4C)nc3c2C(C)C)cn2ncnc2c1C [Example 793] | 1.4 nM | 1.4 nM | 7830 nM | – | – | –
Cc1c(-c2[nH]c3ccc(N4C[C@H](C)N(CCC(N)=O)C[C@@H]4C)nc3c2C(C)C)cn2ncnc2c1C [Example 794] | – | – | – | 1.5 nM | 1.4 nM | 18000 nM
Cc1c(-c2[nH]c3ccc(N4C[C@H](C)N(CCCS(C)(=O)=O)C[C@@H]4C)nc3c2C(C)C)cn2ncnc2c1C [Example 795] | – | – | – | 8.1 nM | 12 nM | > 50000 nM
Cc1c(-c2[nH]c3ccc(N4C[C@@H](C)N(C(=O)CN(C)C)C[C@H]4C)nc3c2C(C)C)cn2ncnc2c1C [Example 796] | – | – | – | 15 nM | 6 nM | 11300 nM
Cc1c(-c2[nH]c3ccc(N4C[C@@H](C)N(C(=O)CCN(C)C)C[C@H]4C)nc3c2C(C)C)cn2ncnc2c1C [Example 797] | – | – | – | 14 nM | 10 nM | 17600 nM
Cc1c(-c2[nH]c3ccc(N4C[C@@H](C)N(CCC(N)=O)C[C@H]4C)nc3c2C(C)C)cn2ncnc2c1C [Example 798] | – | – | – | 5.7 nM | 4.2 nM | 22300 nM
Cc1c(-c2[nH]c3ccc(N4C[C@@H](C)N(CC(N)=O)C[C@H]4C)nc3c2C(C)C)cn2ncnc2c1C [Example 799] | – | – | – | 21 nM | 5 nM | > 50000 nM
Cc1c(-c2[nH]c3ccc(N4C[C@@H](C)N(CC(N)=O)C[C@H]4C)nc3c2C(C)C)cn2ncnc2c1C [Example 800] | – | – | – | 26 nM | 20 nM | > 50000 nM
Cc1c(-c2[nH]c3ccc(N4CCN(C(=O)CN(C)C)C[C@@H]4C)nc3c2C(C)C)cn2ncnc2c1C [Example 801] | – | – | – | 0.56 nM | 0.57 nM | 11000 nM
Cc1c(-c2[nH]c3ccc(N4CCN(CC(C)(C)O)C[C@@H]4C)nc3c2C(C)C)cn2ncnc2c1C [Example 802] | – | – | – | 0.65 nM | 3 nM | 17900 nM
